# Like-named read-outs stand apart in the source and are kept apart here.
# Assay: Solubility at 37° C. in buffer solutions with different pH (about 10 mg in 1 ml, 2 h and 24 h); filtrate concentration and pH, XRPD of remaining solid
# Type: physicochemical
# Settings: for solubility at 2 h / solubility at 24 h: thermodynamic from solid; for solubility at 2 h: read-out: Solubility at 37° C. (mg/ml) 2 h
# Method: Approximately 10 mg of malate crystal form VII-A and free base Form A were weighed separately, and 1 ml of buffer solutions with different pH were added to make the solution supersaturated, and the mixtures were stirred at 37° C. for 2 h and 24 hours. The samples were filtered, and the filtrates were measured to determine the concentration and pH value, and the remaining solid was subjected to XRPD determination. The specific results were as follows: […]
smiles,measurement,setting,value
"CCc1nc2c(N)ncc(-c3ccc(N4CCC(N5CCN(CC)CC5)CC4)c(OC)c3)c2nc1NC1CCOCC1 [Free base Form A, 3-ethyl-8-(4-(4-(4-ethylpiperazin-1-yl)piperidin-1-yl)-3-methoxyphenyl)-N2-(tetrahydro-2H-pyran-4-yl) pyridino [3,4-b]pyrazine-2,5-diamine]",solubility at 2 h,"buffer solution pH 4.5, 37 °C, pH 4.5, aqueous buffer, medium pH 4.5, 2 h",> 10 mg/mL
same,solubility at 24 h,"buffer solution pH 4.5, 37 °C, pH 4.5, aqueous buffer, medium pH 4.5, 24 h, read-out: Solubility at 37° C.",> 10 mg/mL
same,solubility at 24 h,"buffer solution pH 4.5, 37 °C, pH 4.5, aqueous buffer, medium pH 4.5, 24 h, read-out: Solubility at 37° C. (mg/ml) 24 h",> 10 mg/mL
same,pH (24 h),"filtrate, medium FaSSIF",5.434
same,pH (24 h),"filtrate, medium FeSSIF",4.992
same,pH (24 h),"filtrate, medium H2O",4.607
same,pH (24 h),"filtrate, medium SGF",1.494
same,pH (24 h),"filtrate, medium pH 1.2",1.463
same,pH (24 h),"filtrate, medium pH 3.0",3.683
same,pH (24 h),"filtrate, medium pH 4.5",4.520
same,pH (24 h),"filtrate, medium pH 6.8",6.180
same,pH (24 h),"filtrate, medium pH 7.4",6.664
same,Solubility at 37° C. (mg/ml) 2 h,"medium FaSSIF, 2 h",1.234 mg/mL
same,Solubility at 37° C.,"medium FaSSIF, 2 h, listed as API",1.234 mg/mL
same,Solubility at 37° C. (mg/ml) 24 h,"medium FaSSIF, 24 h",0.983 mg/mL
same,Solubility at 37° C.,"medium FaSSIF, 24 h, listed as API",0.983 mg/mL
same,Crystal form,"medium FaSSIF, XRPD of remaining solid, listed as API",Form A
same,pH (24 h),"medium FaSSIF, filtrate, 37° C., listed as API",5.434
same,Solubility at 37° C.,"medium FeSSIF, 2 h",>10 mg/mL
same,Solubility at 37° C. (mg/ml) 2 h,"medium FeSSIF, 2 h",>10 mg/mL
same,Solubility at 37° C.,"medium FeSSIF, 24 h",>10 mg/mL
same,Solubility at 37° C. (mg/ml) 24 h,"medium FeSSIF, 24 h",>10 mg/mL
same,pH (24 h),"medium FeSSIF, filtrate, 37° C., listed as API",4.992
same,Solubility at 37° C. (mg/ml) 2 h,"medium H2O, 2 h",0.0365 mg/mL
same,Solubility at 37° C.,"medium H2O, 2 h, listed as API",0.0365 mg/mL
same,Solubility at 37° C. (mg/ml) 24 h,"medium H2O, 24 h",0.0046 mg/mL
same,Solubility at 37° C.,"medium H2O, 24 h, listed as API",0.0046 mg/mL
same,Crystal form,"medium H2O, XRPD of remaining solid, listed as API",Form A
same,pH (24 h),"medium H2O, filtrate, 37° C., listed as API",4.607
same,Solubility at 37° C.,"medium SGF, 2 h",>10 mg/mL
same,Solubility at 37° C. (mg/ml) 2 h,"medium SGF, 2 h",>10 mg/mL
same,Solubility at 37° C.,"medium SGF, 24 h",>10 mg/mL
same,Solubility at 37° C. (mg/ml) 24 h,"medium SGF, 24 h",>10 mg/mL
same,pH (24 h),"medium SGF, filtrate, 37° C., listed as API",1.494
same,pH (24 h),"medium pH 1.2, filtrate, 37° C., listed as API",1.463
same,pH (24 h),"medium pH 3.0, filtrate, 37° C., listed as API",3.683
same,pH (24 h),"medium pH 4.5, filtrate, 37° C., listed as API",4.520
same,Solubility at 37° C. (mg/ml) 2 h,"medium pH 6.8, 2 h",0.294 mg/mL
same,Solubility at 37° C.,"medium pH 6.8, 2 h, listed as API",0.294 mg/mL
same,Solubility at 37° C. (mg/ml) 24 h,"medium pH 6.8, 24 h",0.271 mg/mL
same,Solubility at 37° C.,"medium pH 6.8, 24 h, listed as API",0.271 mg/mL
same,Crystal form,"medium pH 6.8, XRPD of remaining solid, listed as API",Form A
same,pH (24 h),"medium pH 6.8, filtrate, 37° C., listed as API",6.180
same,Solubility at 37° C. (mg/ml) 2 h,"medium pH 7.4, 2 h",0.012 mg/mL
same,Solubility at 37° C.,"medium pH 7.4, 2 h, listed as API",0.012 mg/mL
same,Solubility at 37° C. (mg/ml) 24 h,"medium pH 7.4, 24 h",0.016 mg/mL
same,Solubility at 37° C.,"medium pH 7.4, 24 h, listed as API",0.016 mg/mL
same,Crystal form,"medium pH 7.4, XRPD of remaining solid, listed as API",Form A
same,pH (24 h),"medium pH 7.4, filtrate, 37° C., listed as API",6.664
same,solubility at 2 h,"pH 1.2 buffer solution, 37 °C, pH 1.2, simulated gastric fluid, medium pH 1.2, 2 h",> 10 mg/mL
same,solubility at 24 h,"pH 1.2 buffer solution, 37 °C, pH 1.2, simulated gastric fluid, medium pH 1.2, 24 h, read-out: Solubility at 37° C. (mg/ml) 24 h",> 10 mg/mL
same,solubility at 2 h,"pH 3.0 buffer solution, 37 °C, pH 3, aqueous buffer, medium pH 3.0, 2 h",> 10 mg/mL
same,solubility at 24 h,"pH 3.0 buffer solution, 37 °C, pH 3, aqueous buffer, medium pH 3.0, 24 h, read-out: Solubility at 37° C. (mg/ml) 24 h",> 10 mg/mL
same,Crystal form,"remaining solid, medium FaSSIF, XRPD",Free base
same,Crystal form,"remaining solid, medium H2O, XRPD",Free base
same,Crystal form,"remaining solid, medium pH 6.8, XRPD",Free base
same,Crystal form,"remaining solid, medium pH 7.4, XRPD",Free base

# From patent US20250101017A1, “SALT CRYSTAL FORM AND FREE BASE CRYSTAL FORM OF KINASE INHIBITOR” (CYTOSINLAB THERAPEUTICS CO., LTD., priority 2022, published 2025)
